Test results from PubChem BioAssay AID2305 (GlaxoSmithKline (GSK), 2010).

tested on: P. falciparum 3D7 growth, pLDH absorbance; assay: blood-stage malaria parasite growth potency – strain 3D7, dose response (AID 2305)

| SMILES | IC50 |
| --- | --- |
| Cc1cc(N[C@@H](Cc2ccccc2)C(=O)NCCc2ccccc2)nc(NCCOc2ccccc2)n1 | 1000 nM |
| CCOC(=O)c1ccc(NC(=O)N[C@@H](Cc2ccccc2)C(=O)NC2CCN(Cc3ccc(O)cc3)C2)cc1 (stereo partly drawn) | 630 nM |
| COc1cccc(NC(=O)c2cc(C(=O)Nc3cccc(OC)c3)cc([N+](=O)[O-])c2)c1 | 660 nM |
| O=C(NCCCN1CCC(N2CCCCC2)CC1)C1=Cc2cc(Br)ccc2OC1 | 850 nM |
| CCOc1cc(CC)ccc1C1CCN(CCCCNC(=O)c2ccc(NC(=O)c3ccc(C#N)cc3)cc2)CC1 | 500 nM |
| C=CC[C@H](NC(=O)c1ccc(NS(=O)(=O)c2ccc3nc(N)[nH]c(=O)c3c2)cc1)C(=O)OCCCC | 150 nM |
| COc1ccc(-n2ccnc2)cc1CNC1CCN(CC2Cn3c(=O)ccc4ccc(F)c2c43)CC1 (stereo not drawn) | 930 nM |
| CC(C)CNCc1cccc(-c2ccc(CN(CCCN3CCN(C)CC3)C(=O)CCC3CCCC3)cc2)c1 | 880 nM |
| CC(=O)Nc1ccc(S(=O)(=O)Nc2ccc(Nc3nc(C)cc(N(C)C)n3)cc2)cc1 | 1160 nM |
| NCCNC(=O)c1ccc(-c2cnc3[nH]cc(-c4ccc(C(N)=O)cc4)c3c2)cc1 | 170 nM |
| CN1CCN(c2ccnc3ccc(NC(=O)Nc4cccc(C#N)c4)cc23)CC1 | 800 nM |
| CN(C(=O)/C=C/c1cc(C(F)(F)F)ccc1F)C1CCN(CCCCCNC(=O)/C=C/c2ccc(Cl)c(Cl)c2)CC1 | 290 nM |
| CN(C)c1ccc(-c2csc(C(=O)NCC3CCN(Cc4ccc(C(C)(C)C)cc4)C3)c2)cc1 (stereo not drawn) | 990 nM |
| Nc1nc(N)c2c(ccc3nccc32)[nH]1 | 1080 nM |
| CC(C)CNCc1ccc(-c2cccc(CN(CCN(C)C)C(=O)CCC3CCCC3)c2)cc1 | 810 nM |
| COc1cc2ncnc(Nc3ccc4nc(-c5ccccc5)[nH]c4c3)c2cc1OC | 440 nM |
| O=C(Nc1cccc(CN2CCN(Cc3ccc(O)cc3)CC2)c1)c1ccc(-c2ccccc2)cc1 | 250 nM |
| CCCCCN=C(N)N/N=C/c1c[nH]c2ccc(OC)cc12 | 960 nM |
| CCCCCN1CCCN(Cc2cccc(NC(=O)c3ccc4ccccc4c3)c2)CC1 | 1220 nM |
| OC(CNCc1ccccc1OCc1ccccc1)c1cc(Br)cs1 (stereo not drawn) | 720 nM |
| O=C(NCc1ccc(Cl)cc1)c1ccc(CN2CCCN(CC3CCCCC3)CC2)cc1 | 1700 nM |
| Cc1c2ccncc2c(C)c2c1[nH]c1cc(Cc3ccccc3)c(O)cc12 | 150 nM |
| O=c1cc(N2CCNCC2)c(Cl)nn1Cc1ccc(NS(=O)(=O)c2ccc(Oc3ccccc3)cc2)cc1 | 570 nM |
| CCC(C)NS(=O)(=O)c1ccc2nc(Nc3ccc(C)c(Cl)c3)n([C@H](C)C(C)(C)C)c2c1 (stereo partly drawn) | 380 nM |

| SMILES | IC50 |
| --- | --- |
| CC1(C)N=C(N)N=C(N)N1c1ccccc1 | 330 nM |
| COc1cccc(CN2CCCC(OC(c3ccccc3)c3ccccc3)C2)c1O (stereo not drawn) | 930 nM |
| O=C(Cn1c(CCc2cccc(F)c2F)nc(=O)c2cccnc21)N(Cc1ccc(-c2ccc(C(F)(F)F)cc2)cc1)C1CCN(C2CCOCC2)CC1 | 830 nM |
| CC(C)CCN(Cc1cncn1Cc1cccc(Cl)c1)C(=O)c1cncc(-c2ccccc2)c1 | 760 nM |
| CC[C@H]1CN2CC[C@H]1C[C@H]2[C@H](O)c1cc(/C=C/c2ccccc2)nc2ccc(OC)cc12 | 40 nM |
| O=C(Nc1ccc(-c2nc3ccccc3[nH]2)cc1)c1ccc([N+](=O)[O-])s1 | 250 nM |
| CC(C)C[C@H](NC(=O)c1ccc(OCCN2CCOCC2)cc1)C(=O)N[C@H](/C=N/N1CCNC1=O)CCc1ccccc1 | 370 nM |
| CCCCCCCC1CC(CC(=O)Nc2ccnc3ccc(OC)cc23)CN1C(=O)OC(C)(C)C (stereo not drawn) | 710 nM |
| CO/C(=C\C=C\c1cc2cc(Cl)c(Cl)cc2[nH]1)C(=O)NCCCN1CCN(c2cccc(CCO)c2)CC1 | 720 nM |
| O=c1cc(NCCCNCc2cc3c(Cl)cccc3s2)[nH]c2ccccc12 | 470 nM |
| CN(c1ccc(NC(=O)Nc2cccc(Cl)c2)cc1)c1ccnc(N)n1 | 630 nM |
| Cc1ccc(F)c(OC2CCN(c3ccc(C(=O)NC4CC4)cn3)CC2)c1 | 820 nM |
| Cc1cc(NCc2ccc(F)cc2)nc2cc(O)ccc12 | 760 nM |
| COc1ccc(S(=O)(=O)NCC2CCCN(CCCCCNC(=O)/C=C/c3ccc(Cl)c(Cl)c3)C2)cc1 (stereo not drawn) | 1060 nM |
| CCCN1CCN(CC(O)CNC(=O)Nc2ccc(Br)cc2)CC1 (stereo not drawn) | 60 nM |
| CCCN(CC1CC1)c1ncc(-c2ccccc2CNCc2ccccc2O)cn1 | 500 nM |
| COc1nc(-n2ccc(=N)cc2)nc2ccccc12 | 1060 nM |
| Cc1cccc2[nH]c(-c3ccc(-c4cccc(CNCCN(C)C)c4)cc3)nc12 | 680 nM |
| O=C(CCc1nc2c(cnn2-c2ccccc2)c(=O)[nH]1)NC1CCSc2ccccc21 (stereo not drawn) | 1060 nM |
| CC(=O)C1=NN(c2ccc(Cl)cc2)C(c2cccs2)N1c1ccccc1 (stereo not drawn) | 400 nM |
| CN1CCC(C(=O)Nc2cccc(-c3cccc(-c4nc5ccc(F)cc5[nH]4)c3)c2)CC1 | 690 nM |
| NCc1ccc(CNCc2cccc(-c3ccc(-c4nc5ccc(C(F)(F)F)cc5[nH]4)cc3)c2)cc1 | 260 nM |
| COc1ccc(C2CC(c3cccs3)=NN2C(=O)CNc2cccc(C#N)c2)cc1OC (stereo not drawn) | 1450 nM |
| CC(C)COc1ccc(Cl)cc1Cc1ccc(-c2nc3ccc(CCN(C)C)cc3[nH]2)o1 | 980 nM |
